Source: US20200031811A1, “SUBSTITUTED MONO- AND POLYAZANAPHTHALENE DERIVATIVES AND THEIR USE” (Basilea Pharmaceutica International AG, priority 2015, published 2020)

Assays:
MNK1 = molecular target: T1, MNK1 (Homo sapiens, UniProt Q9BUB5); experiment: MNK inhibition assay (Z-Lyte kinase assay, Ser/Thr 7 peptide); format: biochemical; conditions: for IC50: recombinant GST-MNK1, 3 hours at 31° C.; for inhibition at 10 µM: read-out: Inhibition of MNK1 activity at indicated concentration
T1 construct: purchased Life Technologies or Carna Biosciences PV6023 or 02-145; host or cells: baculovirus infected insect cells
T1 sequence (Q9BUB5 whole entry): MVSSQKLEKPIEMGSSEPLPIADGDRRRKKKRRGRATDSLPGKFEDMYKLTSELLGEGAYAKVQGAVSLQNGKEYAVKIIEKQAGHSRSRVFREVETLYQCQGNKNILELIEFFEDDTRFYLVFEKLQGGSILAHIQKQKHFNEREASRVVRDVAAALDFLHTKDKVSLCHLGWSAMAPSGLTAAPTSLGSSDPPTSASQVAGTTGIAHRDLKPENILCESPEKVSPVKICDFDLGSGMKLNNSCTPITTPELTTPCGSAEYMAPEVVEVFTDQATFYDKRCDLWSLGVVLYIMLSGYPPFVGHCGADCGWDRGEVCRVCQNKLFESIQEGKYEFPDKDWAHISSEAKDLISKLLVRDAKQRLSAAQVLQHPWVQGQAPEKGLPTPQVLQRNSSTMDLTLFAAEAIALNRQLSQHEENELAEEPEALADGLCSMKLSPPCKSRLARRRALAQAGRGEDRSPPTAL
From the text: For the measurement of the activity of the MNK1 kinase the Z-Lyte kinase assay system was used. The kinase activity of MNK1 can be quantified with the Z-Lyte kinase assay kit Ser/Thr 7 peptide (Life Technologies PV3180). The kit was utilized according to the instructions of the provider. A recombinant GST-MNK1 fusion protein produced in and purified from baculovirus infected insect cells was used as enzyme source (GST-MNK1 Life Technologies PV6023 or Carna Biosciences 02-145). It was verified that both sources of the MNK1 enzyme gave similar IC50 values with several compounds. The MNK1 enzyme assay was performed in 384 well round bottom black microtiter plates (Corning 3676). The kinase reaction was performed for 3 hours at 31° C. As instructed by the provider of the kit the amount of enzyme was chosen such that ˜30% of the substrate peptide was phosphorylated in control wells containing buffer only. The MNK1 inhibiting activity of compounds was tested by adding the compounds to the kinase reaction at a concentration of 10000, 5000, 2000, 1000, 500, 200, 100, 50 nM. Compounds with strong MNK1 inhibition were tested at 20, 10, 5, 2, 1 and 0.5 nM in addition. Each compound concentration was tested at least in duplicate. The % phosphorylation of the substrate peptide at each compound concentration was calculated as described in the assay manual. The fluorescent signals were recordes on Biotek Cytation 3 microplate reader. The IC50, the concentration that reduced substrate phosphorylation by 50% if compared to buffer only wells, was calculated with the Grafit 6 software (Erythacus software).

[1] = test system: human pancreatic cancer cell line MiaPaCa2 (ATCC CRL-1420); experiment: Cell growth assay (CellTiterGlo, 72 hours); format: cell-based; conditions: for inhibition at 100 µM: MIA PaCa-2, at 100 μM; for inhibition at 100 µM / inhibition at 50 µM: read-out: Inhibition of MiaPaCa growth at indicated concentration; for inhibition at 50 µM: MIA PaCa-2, at 50 μM; for IC50: MIA PaCa-2, MiaPaCa2 cells, 72 hours, read-out: IC50 MiaPaCa
Protocol: The inhibition of cell growth by the compounds was tested by exposing the human pancreatic cancer cell line MiaPaCa2 (ATCC CRL-1420) to the compounds. The assay was performed in 384 well clear bottom white microtiter plates (Greiner #781098). Each well was seeded with 10^3 cells in 20 μl of Dulbecco's modified Eagle's medium (Sigma D6796) supplied with 10% fetal calf scrum (Sigma F7524), 2.5% horse serum (Sigma H0146), 1% Penicillin-Streptomycin (Sigma P0781), 1% MEM nonessential amino acid solution 100× (Sigma M71459) and 1% 200 mM L-Glutamine (Sigma G7513) culture medium. After overnight incubation at 37° C. in 5% CO2 the compounds were added in the following concentrations: 100, 50, 20, 10, 5, 2, 1, 0.5, 0.2 and 0.1 μM. Each compound concentration was tested in quadruplicate. The incubation was then continued for 72 hours. After 72 hours the growth of the cells was assessed by the addition of the CellTiterGlo reagent (Promega G9242) as instructed by the provider. The luminescent signal was recorded on a SpectraMax M2 microplate reader. The signal obtained in wells containing cells cultivated in the absence of compound was set to 100% growth after subtracting the signal obtained in medium only wells. The % growth in each well was calculated by subtracting the medium only value and dividing through the 100% growth value. The IC50 for cell growth, the concentration of compound at which cell growth was reduced to 50%, was calculated with the GraFit6 software (Erythacus software).

Compound `Oc1ccc(-c2cncc3ccc(CNC4CCNCC4)cc23)cc1` [Example 40] has an IC50 (MNK1) of 263 nM and an inhibition at 100 µM [1] of 48%.
For `Oc1ccc(-c2cncc3ccc(CNC4CCNC4)cc23)cc1` (stereo not drawn) [Example 41], the IC50 (MNK1) was 254 nM and the inhibition at 100 µM [1] was 67%.
Work on `NC1CCC(NCc2ccc3cncc(-c4ccc(O)cc4)c3c2)C1` (stereo not drawn) [Example 42, 4-[6-[[(3-Aminocyclopentyl)amino]methyl]-4-isoquinolyl]phenol] yielded an IC50 (MNK1) of 496 nM and an inhibition at 50 µM [1] of 44%.
For `CN(C)CCCNCc1ccc2cncc(-c3ccc(O)cc3)c2c1` [Example 43, 4-[6-[[3-(Dimethylamino)propylamino]methyl]-4-isoquinolyl]phenol], the IC50 (MNK1) was 219 nM and the IC50 [1] was 32.2 µM.
Work on `NCCCOCc1ccc2cncc(-c3ccc(O)cc3)c2c1` [Example 44, 4-[6-(3-Aminopropoxymethyl)-4-isoquinolyl]phenol] yielded an IC50 (MNK1) of 61 nM and an IC50 [1] of 20.6 µM.
For `CN(C)C1CCN(Cc2ccc3cncc(-c4cc5ccccc5o4)c3c2)CC1` [Example 46, 1-[[4-(Benzofuran-2-yl)-6-isoquinolyl]methyl]-N,N-dimethyl-piperidin-4-amine], the IC50 (MNK1) was 618 nM and the IC50 [1] was 8.21 µM.
`CN1CCN(Cc2ccc3cncc(-c4cc5ccccc5o4)c3c2)CC1` [Example 47] gave an IC50 (MNK1) of 1120 nM and an IC50 [1] of 10.9 µM.
Compound `Nc1cccc(NCc2ccc3cncc(-c4cc5ccccc5o4)c3c2)c1` [Example 48] has an IC50 (MNK1) of 1150 nM and an IC50 [1] of 25 µM.
With `Nc1ccc(NCc2ccc3cncc(-c4cc5ccccc5o4)c3c2)cc1` [Example 50] the IC50 (MNK1) was 384 nM and the IC50 [1] was 5.59 µM.
For `NCc1ccccc1NCc1ccc2cncc(-c3cc4ccccc4o3)c2c1` [Example 51, 2-(Aminomethyl)-N-[[4-(benzofuran-2-yl)-6-isoquinolyl]methyl]aniline], the IC50 (MNK1) was 4220 nM and the IC50 [1] was 6.34 µM.
`NCc1ccc(NCc2ccc3cncc(-c4cc5ccccc5o4)c3c2)cc1` [Example 52] showed an IC50 (MNK1) of 163 nM and an IC50 [1] of 14.1 µM.
Compound `NCc1cccc(NCc2ccc3cncc(-c4cc5ccccc5o4)c3c2)c1` [Example 53] has an IC50 (MNK1) of 580 nM and an IC50 [1] of 18.6 µM.
With `Nc1cc[n+](Cc2ccc3cncc(-c4cc5ccccc5o4)c3c2)c2ccccc12` [Example 54, 1-[[4-(Benzofuran-2-yl)-6-isoquinolyl]methyl]quinolin-1-ium-4-amine] the IC50 (MNK1) was 15 nM and the IC50 [1] was 2.85 µM.
Work on `Nc1cc[n+](Cc2ccc3cncc(-c4cc5ccccc5o4)c3c2)cc1` [Example 55] yielded an IC50 (MNK1) of 14 nM and an IC50 [1] of 1.83 µM.
`Nc1ccc[n+](Cc2ccc3cncc(-c4cc5ccccc5o4)c3c2)c1` [Example 56] was tested, and the IC50 (MNK1) was 143 nM and the inhibition at 100 µM [1] was 85%.
For `Cc1c[n+](Cc2ccc3cncc(-c4cc5ccccc5o4)c3c2)ccc1N` [Example 57], the IC50 (MNK1) was 7.9 nM and the IC50 [1] was 3.37 µM.
With `Nc1cc[n+](Cc2ccc3cncc(-c4cc5ccccc5o4)c3c2)cc1C(F)(F)F` [Example 58] the IC50 (MNK1) was 50 nM and the IC50 [1] was 13.6 µM.
`Nc1cc[n+](Cc2ccc3cncc(-c4cc5ccccc5o4)c3c2)cc1O` [Example 59] showed an IC50 (MNK1) of 90 nM and an IC50 [1] of 47 µM.
In the case of `c1ccc2oc(-c3cncc4ccc(CNc5ccncc5)cc34)cc2c1` [Example 61], the IC50 (MNK1) is reported as 3 nM and the IC50 [1] is reported as 5.25 µM.
In the case of `FC(F)(F)c1cc(NCc2ccc3cncc(-c4cc5ccccc5o4)c3c2)ccn1` [Example 64], the inhibition at 10 µM (MNK1) is reported as 41% and the IC50 [1] is reported as 14.8 µM.
`CN(Cc1ccc2cncc(-c3cc4ccccc4o3)c2c1)c1ccncc1` [Example 67] was tested, and the IC50 (MNK1) was 57 nM and the IC50 [1] was 5.58 µM.
`CN(C)c1cc(NCc2ccc3cncc(-c4cc5ccccc5o4)c3c2)ccn1` [Example 68] showed an IC50 (MNK1) of 45 nM and an IC50 [1] of 6.19 µM.
Compound `Cc1cnccc1NCc1ccc2cncc(-c3cc4ccccc4o3)c2c1` [Example 69] has an IC50 (MNK1) of 17 nM and an IC50 [1] of 7 µM.
`Fc1cnccc1NCc1ccc2cncc(-c3cc4ccccc4o3)c2c1` [Example 70] was tested, and the IC50 (MNK1) was 32 nM and the IC50 [1] was 12.2 µM.
For `Clc1cnccc1NCc1ccc2cncc(-c3cc4ccccc4o3)c2c1` [Example 71], the IC50 (MNK1) was 128 nM and the IC50 [1] was 10.3 µM.
For `COc1cnccc1NCc1ccc2cncc(-c3cc4ccccc4o3)c2c1` [Example 72], the IC50 (MNK1) was 12 nM and the IC50 [1] was 5.08 µM.
In the case of `Oc1cnccc1NCc1ccc2cncc(-c3cc4ccccc4o3)c2c1` [Example 73], the IC50 (MNK1) is reported as 5 nM and the IC50 [1] is reported as 15 µM.
For `O=c1cc(NCc2ccc3cncc(-c4cc5ccccc5o4)c3c2)cc[nH]1` [Example 74], the IC50 (MNK1) was 5.3 nM and the IC50 [1] was 19.2 µM.
Compound `O=[N+]([O-])c1cnccc1NCc1ccc2cncc(-c3cc4ccccc4o3)c2c1` [Example 75, N-[[4-(Benzofuran-2-yl)-6-isoquinolyl]methyl]-3-nitro-pyridin-4-amine] has an IC50 (MNK1) of 2130 nM and an IC50 [1] of 18 µM.
Work on `Nc1cnccc1NCc1ccc2cncc(-c3cc4ccccc4o3)c2c1` [Example 76, N4-[[4-(Benzofuran-2-yl)-6-isoquinolyl]methyl]pyridine-3,4-diamine] yielded an IC50 (MNK1) of 5.9 nM and an IC50 [1] of 4.75 µM.
With `FC(F)(F)c1cnccc1NCc1ccc2cncc(-c3cc4ccccc4o3)c2c1` [Example 77] the IC50 (MNK1) was 1130 nM and the IC50 [1] was 10 µM.
`c1ccc2oc(-c3cncc4ccc(OC5CCNCC5)cc34)cc2c1` [Example 78, 4-(Benzofuran-2-yl)-6-(4-piperidyloxy)isoquinoline] gave an IC50 (MNK1) of 208 nM and an IC50 [1] of 3.46 µM.
With `N[C@H]1CC[C@H](Oc2ccc3cncc(-c4cc5ccccc5o4)c3c2)CC1` [Example 79, 4-[[4-(Benzofuran-2-yl)-6-isoquinolyl]oxy]cyclohexanamine] the IC50 (MNK1) was 401 nM and the IC50 [1] was 4.72 µM.
`N[C@H]1CC[C@@H](Oc2ccc3cncc(-c4cc5ccccc5o4)c3c2)CC1` [Example 80] showed an IC50 (MNK1) of 675 nM and an IC50 [1] of 3.55 µM.
Compound `c1ccc(-c2cnnc3ccc(CN4CCNCC4)cc23)cc1` [Example 83, 4-Phenyl-6-(piperazin-1-ylmethyl)cinnoline] has an inhibition at 10 µM (MNK1) of 54% and an inhibition at 100 µM [1] of 31%.
Work on `NC1CCN(Cc2ccc3nncc(-c4ccccc4)c3c2)CC1` [Example 84] yielded an IC50 (MNK1) of 3730 nM and an inhibition at 100 µM [1] of 33%.
For `Oc1ccc(-c2cnnc3ccc(CN4CCNCC4)cc23)cc1` [Example 85], the IC50 (MNK1) was 318 nM and the inhibition at 100 µM [1] was 33%.
For `NC1CCN(Cc2ccc3nncc(-c4ccc(O)cc4)c3c2)CC1` [Example 86], the IC50 (MNK1) was 174 nM and the inhibition at 100 µM [1] was 50%.
With `N[C@H]1CC[C@H](Nc2ccc3c(=O)[nH]cc(-c4cc5ccccc5o4)c3c2)CC1` [Example 87, 6-[(4-Aminocyclohexyl)amino]-4-(benzofuran-2-yl)-2H-isoquinolin-1-one] the IC50 (MNK1) was 1980 nM and the IC50 [1] was 4.47 µM.
For `Nc1ncc(-c2ccccc2)c2cc(CN3CCNCC3)ccc12` [Example 91, 4-Phenyl-6-(piperazin-1-ylmethyl)isoquinolin-1-amine], the IC50 (MNK1) was 476 nM and the IC50 [1] was 11.3 µM.
`Nc1ncc(-c2ccccc2)c2cc(CN3CCC(N)CC3)ccc12` [Example 92] was tested, and the IC50 (MNK1) was 577 nM and the IC50 [1] was 7.2 µM.
`Nc1ncc(-c2ccc(O)cc2)c2cc(CN3CCNCC3)ccc12` [Example 93] gave an IC50 (MNK1) of 197 nM and an inhibition at 50 µM [1] of 27%.
With `Nc1ncc(-c2ccc(O)cc2)c2cc(CN3CCC(N)CC3)ccc12` [Example 94] the IC50 (MNK1) was 221 nM and the inhibition at 50 µM [1] was 27%.
In the case of `CN(C)CCOc1ccc2cncc(-c3cc4ccccc4o3)c2c1` [Example 95, 2-[[4-(Benzofuran-2-yl)-6-isoquinolyl]oxy]-N,N-dimethyl-ethanamine], the IC50 (MNK1) is reported as 1730 nM and the IC50 [1] is reported as 8.38 µM.
Compound `Cn1nccc1Oc1ccc2cncc(-c3cc4ccccc4o3)c2c1` [Example 96] has an IC50 (MNK1) of 3990 nM and an IC50 [1] of 6.14 µM.
